Data as given in patent publication US20110086834A1, “ALKYNYL ALCOHOLS AS KINASE INHIBITORS” (AMGEN INC., priority 2008, published 2011).
pKi: −log10 of the molar value.

Target: T1, NIK (Homo sapiens, UniProt Q99558)
T1 construct: Both assays utilize a truncated form of NIK containing only the catalytic domain; made in house; host or cells: baculovirus expression system (insect cells implied)
Test: homogenous time resolved fluorescence (HTRF) assay for NIK Ki measurement
Type: biochemical
Details: truncated NIK (catalytic domain only), autophosphorylation; 10 nM enzyme; 20, 100, 200 or 500 μM ATP; room temperature, 2 hours; read-out: Ki activity in the homogenous time resolved fluorescence (HTRF) assay for NIK
Experimental: Two formats of biochemical assays are implemented: (1) chemiluminescent (CL) assay for NIK IC50 determination; (2) homogenous time resolved fluorescence (HTRF) assay for NIK Ki measurement. […] The NIK proteins are purified with baculovirus expression system and further biotinylated with N-hydroxysuccinamide biotin ester (Sigma). […] The reaction mixtures are then immobilized on a Streptavidin-coated plate (Pierce). […] For the HTRF assay, 10 nM of enzyme are incubated with compounds in the presence of 20, 100, 200, or 500 μM of ATP in a buffer with 20 mM of Hepes pH7.5, 20 mM of MgCl2, 0.2% of Tween 20 and 1 mM of DTT at room temperature for 2 hours.

T1 sequence (Q99558 400-655 limits assumed): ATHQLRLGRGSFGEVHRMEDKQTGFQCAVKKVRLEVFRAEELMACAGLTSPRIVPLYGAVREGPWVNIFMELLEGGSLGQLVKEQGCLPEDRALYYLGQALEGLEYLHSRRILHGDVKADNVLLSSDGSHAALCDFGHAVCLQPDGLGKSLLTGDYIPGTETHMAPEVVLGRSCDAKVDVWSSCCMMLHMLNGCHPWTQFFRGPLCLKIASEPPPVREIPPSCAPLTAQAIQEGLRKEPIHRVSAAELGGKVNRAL

pKi | Compound
> 6.00 | Cc1cc(C(C)(O)C#Cc2ccc3c(c2)N(c2nc(N)ncc2Cl)CC3)no1 (racemic) [Example 23, 4-(1-(2-amino-5-chloropyrimidin-4-yl)indolin-6-yl)-2-(5-methylisoxazol-3-yl)but-3-yn-2-ol]
> 6.00 | CC(O)(C#Cc1ccc2c(c1)N(c1nc(N)ncc1Cl)CC2(C)C)c1nccs1 (racemic) [Example 39, 4-(1-(2-amino-5-chloro-4-pyrimidinyl)-3,3-dimethyl-2,3-dihydro-1H-indol-6-yl)-2-(1,3-thiazol-2-yl)-3-Butyn-2-ol]
> 6.00 | CN1CC2(C1)CN(c1nc(N)ncc1Cl)c1cc(C#CC(C)(O)c3nccs3)ccc12 (racemic) [Example 181, (rac)-4-(1′-(2-amino-5-chloropyrimidin-4-yl)-1-methylspiro[azetidine-3,3′-indoline]-6′-yl)-2-(thiazol-2-yl)but-3-yn-2-ol]
> 6.00 | CN1CCC2(C1)CN(c1nc(N)ncc1Cl)c1cc(C#CC3(O)CCCC3)ccc12 (racemic) [Example 188, 1-((1-(2-Amino-5-chloro-4-pyrimidinyl)-r-methyl-1,2-dihydrospiro[indole-3,3′-pyrrolidin]-6-yl)ethynyl)cyclopentanol]
> 6.00 | CN1CCC2(C1)CN(c1nc(N)ncc1F)c1cc(C#CC3(O)CCCC3)ccc12 (racemic) [Example 190, (rac)-1-((1-(2-Amino-5-fluoro-4-pyrimidinyl)-1′-methyl-1,2-dihydrospiro[indole-3,3′-pyrrolidin]-6-yl)ethynyl)cyclopentanol]
> 6.00 | CC(O)(C#Cc1ccc2c(c1)N(c1nc(N)ncc1Cl)CC21CCOC1)c1nccs1 (racemic) [Example 198, 4-(1′-(2-Amino-5-chloro-4-pyrimidinyl)-1′,2′,4,5-tetrahydrospiro[furan-3,3′-indol]-6′-yl)-2-(1,3-thiazol-2-yl)-3-butyn-2-ol]
> 6.00 | CC(O)(C#Cc1ccc2c(c1)N(c1nc(N)ncc1Cl)CC21CCOCC1)c1nccs1 (racemic) [Example 208, (rac)-4-(1-(2-Amino-5-chloro-4-pyrimidinyl)-1,2,2′,3′,5′,6′-hexahydrospiro[indole-3,4′-pyran]-6-yl)-2-(1,3-thiazol-2-yl)-3-butyn-2-ol]
> 6.00 | Cc1cc(C(C)(O)C#Cc2ccc3c(c2)N(c2nc(N)ncc2Cl)CC32CCOCC2)no1 (racemic) [Example 210, (rac)-4-(1-(2-Amino-5-chloro-4-pyrimidinyl)-1,2,2′,3′,5′,6′-hexahydrospiro[indole-3,4′-pyran]-6-yl)-2-(5-methyl-3-isoxazolyl)-3-butyn-2-ol]
> 6.00 | CC(O)(C#Cc1ccc2c(c1)N(c1nc(N)ncc1Cl)CC21CCSCC1)c1nccs1 (racemic) [Example 214, (rac)-4-(1-(2-Amino-5-chloro-4-pyrimidinyl)-1,2,2′,3′,5′,6′-hexahydrospiro[indole-3,4′-thiopyran]-6-yl)-2-(1,3-thiazol-2-yl)-3-butyn-2-ol]
> 6.00 | CC(O)(C#Cc1ccc2c(c1)N(c1nc(N)ncc1Cl)CC21CCS(=O)(=O)CC1)c1nccs1 (racemic) [Example 215, (rac)-4-(1-(2-Amino-5-chloro-4-pyrimidinyl)-1′,1′-dioxido-1,2,2′,3′,5′,6′-hexahydrospiro[indole-3,4′-thiopyran]-6-yl)-2-(1,3-thiazol-2-yl)-3-butyn-2-ol]
> 6.00 | Cc1cc(C(C)(O)C#Cc2ccc3c(c2)N(c2nc(N)ncc2Cl)CC32CCS(=O)(=O)CC2)no1 (racemic) [Example 216, (rac)-4-(1-(2-Amino-5-chloro-4-pyrimidinyl)-1′,1′-dioxido-1,2,2′,3′,5′,6′-hexahydrospiro[indole-3,4′-thiopyran]-6-yl)-2-(5-methyl-3-isoxazolyl)-3-butyn-2-ol]
> 6.00 | CN1CC[C@@]2(C1)CN(c1nc(N)ncc1Cl)c1cc(C#C[C@@](C)(O)c3nccs3)ccc12 (relative stereo) [Example 195, (2R)-4-((3R*)-1-(2-Amino-5-chloro-4-pyrimidinyl)-1′-methyl-1,2-dihydrospiro[indole-3,3′-pyrrolidin]-6-yl)-2-(1,3-thiazol-2-yl)-3-butyn-2-ol]
> 6.00 | CN1CC[C@]2(C1)CN(c1nc(N)ncc1Cl)c1cc(C#C[C@@](C)(O)c3nccs3)ccc12 (relative stereo) [Example 197, (2R)-4-((3S*)-1-(2-Amino-5-chloro-4-pyrimidinyl)-1′-methyl-1,2-dihydrospiro[indole-3,3′-pyrrolidin]-6-yl)-2-(1,3-thiazol-2-yl)-3-butyn-2-ol]
> 6.00 | C[C@@](O)(C#Cc1ccc2c(c1)N(c1nc(N)ncc1Cl)C[C@@]21CCOC1)c1nccs1 (relative stereo) [Example 200, (2R)-4-((3R*)-1′-(2-Amino-5-chloro-4-pyrimidinyl)-1′,2′,4,5-tetrahydrospiro[furan-3,3′-indol]-6′-yl)-2-(1,3-thiazol-2-yl)-3-butyn-2-ol]
4.52 to 6.00 | Cc1cc([C@@](C)(O)C#Cc2ccc3c(c2)N(c2nc(N)ncc2Cl)CC3)no1 (single isomer, unassigned) [Example 24]
> 6.00 | Cc1cc([C@](C)(O)C#Cc2ccc3c(c2)N(c2nc(N)ncc2Cl)CC3)no1 (single isomer, unassigned) [Example 25]

pKi | Compound
4.52 to 6.00 | Cc1cc([C@@](C)(O)C#Cc2ccc3c(c2)N(c2nc(N)ncc2Cl)CC3)on1 (single isomer, unassigned) [Example 28]
> 6.00 | Cc1cc([C@](C)(O)C#Cc2ccc3c(c2)N(c2nc(N)ncc2Cl)CC3)on1 (single isomer, unassigned) [Example 29]
> 6.00 | Cc1cc([C@@](C)(O)C#Cc2ccc3c(c2)N(c2nc(N)ncc2Cl)CC32CCOCC2)on1 (single isomer, unassigned) [Example 30]
> 6.00 | Cc1cc([C@](C)(O)C#Cc2ccc3c(c2)N(c2nc(N)ncc2Cl)CC32CCOCC2)on1 (single isomer, unassigned) [Example 31]
> 6.00 | CC1(C)CN(c2nc(N)ncc2Cl)c2cc(C#C[C@@](C)(O)c3nccs3)ccc21 (single isomer, unassigned) [Example 40]
4.52 to 6.00 | CC1(C)CN(c2nc(N)ncc2Cl)c2cc(C#C[C@](C)(O)c3nccs3)ccc21 (single isomer, unassigned) [Example 41]
4.52 to 6.00 | Cn1cncc1C(O)C#Cc1ccc2c(c1)N(c1nc(N)ncc1Cl)CC2(C)C (single isomer, unassigned) [Example 42, (1R*)-3-(1-(2-amino-5-chloro-4-pyrimidinyl)-3,3-dimethyl-2,3-dihydro-1H-indol-6-yl)-1-(1-methyl-1H-imidazol-5-yl)-2-propyn-1-ol]
> 6.00 | Cn1cnc([C@H](O)C#Cc2ccc3c(c2)N(c2nc(N)ncc2Cl)CC3(C)C)c1 (single isomer, unassigned) [Example 47, (1R*)-3-(1-(2-amino-5-chloro-4-pyrimidinyl)-3,3-dimethyl-2,3-dihydro-1H-indol-6-yl)-1-(1-methyl-1H-imidazol-4-yl)-2-propyn-1-ol]
> 6.00 | C[C@]1(CCO)CN(c2nc(N)ncc2Cl)c2cc(C#CC3(O)CCCC3)ccc21 (single isomer, unassigned) [Example 52, 1-(03R*)-1-(2-amino-5-chloro-4-pyrimidinyl)-3-(2-hydroxyethyl)-3-methyl-2,3-dihydro-1H-indol-6-yl)ethynyl)cyclopentanol]
> 6.00 | CC(O)(C#Cc1ccc2c(c1)N(c1nc(N)ncc1Cl)CC2(C)CO)c1nccs1 (single isomer, unassigned) [Example 53, 4-((3 S*)-1-(2-amino-5-chloro-4-pyrimidinyl)-3-(hydroxymethyl)-3-methyl-2,3-dihydro-1H-indol-6-yl)-2-(1,3-thiazol-2-yl)-3-butyn-2-ol]
> 6.00 | CC1(CO)CN(c2nc(N)ncc2Cl)c2cc(C#CC3(O)CCCC3)ccc21 (single isomer, unassigned) [Example 55, 1-(((3R*)-1-(2-amino-5-chloro-4-pyrimidinyl)-3-(hydroxymethyl)-3-methyl-2,3-dihydro-1H-indol-6-yl)ethynyl)cyclopentanol]
> 6.00 | CC(C)(C#Cc1ccc2c(c1)N(c1nc(N)ncc1Cl)CC2(C)CO)C(=O)OCc1ccccc1 (single isomer, unassigned) [Example 57, benzyl 4-((3S*)-1-(2-amino-5-chloro-4-pyrimidinyl)-3-(hydroxymethyl)-3-methyl-2,3-dihydro-1H-indol-6-yl)-2,2-dimethyl-3-butynoate]
> 6.00 | CC(C)(C#Cc1ccc2c(c1)N(c1nc(N)ncc1Cl)CC2(C)CO)CO (single isomer, unassigned) [Example 58, 4-((3S*)-1-(2-amino-5-chloro-4-pyrimidinyl)-3-(hydroxymethyl)-3-methyl-2,3-dihydro-1H-indol-6-yl)-2,2-dimethyl-3-Butyn-1-ol]
> 6.00 | C[C@@](O)(C#Cc1ccc2c(c1)N(c1nc(N)ncc1Cl)CC2(CO)CO)c1nccs1 (single isomer, unassigned) [Example 61]
> 6.00 | COCC1(C)CN(c2nc(N)nc3[nH]cnc23)c2cc(C#CC3(O)CCCC3)ccc21 (single isomer, unassigned) [Example 70, 1-(((3R*)-1-(2-amino-9H-purin-6-yl)-3-(methoxymethyl)-3-methyl-2,3-dihydro-1H-indol-6-yl)ethynyl)cyclopentanol]
> 6.00 | C[C@@](O)(C#Cc1ccc2c(c1)N(c1nc(N)ncc1Cl)CC21COC1)c1nccs1 (single isomer, unassigned) [Example 82]
